Test results published in patent US11117892B2, “Pyrrolo-pyridine derivative compound, method for preparing same, and pharmaceutical composition containing same as active ingredient for prevention or treatment of protein kinase-related diseases” (DAEGU-GYEONGBUK MEDICAL INNOVATION FOUNDATION, priority 2017, dated 2021).
Read-outs that look alike come from different tables or passages of the source.

Columns and labels:
Assay in all cases: scanMAX Kinase assay panel
Type in all cases: binding
PLK2 = PLK2 (Homo sapiens (Human), UniProt Q9NYY3); settings: read-out: % control
Outline: (§1)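 The % control figures are compound readings scaled so that DMSO-treated wells correspond to 100% and the positive control corresponds to 0%. They were obtained on the scanMAX kinase panel.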

PIK3CA(E542K) = PIK3CA(E542K) (Homo sapiens (Human), UniProt P42336, E542K); settings: read-out: % control
Outline: as §1

NIK = NIK (Homo sapiens (Human), UniProt Q99558); settings: read-out: % control
Outline: as §1

MST1 = MST1 (Homo sapiens (Human), UniProt Q13043); settings: read-out: % control
Outline: as §1

TNNI3K = TNNI3K (Homo sapiens (Human), UniProt Q59H18); settings: read-out: % control
Outline: as §1

PDPK1 = PDPK1 (Homo sapiens (Human), UniProt O15530); settings: read-out: % control
Outline: as §1

ACVR1B = ACVR1B (Homo sapiens (Human), UniProt P36896); settings: read-out: % control
Outline: as §1

FLT3(ITD) = settings: 1 uM
Outline: as §1

ROCK2 = ROCK2 (Homo sapiens (Human), UniProt O75116); settings: read-out: % control
Outline: as §1

WNK3 = WNK3 (Homo sapiens (Human), UniProt Q9BYP7); settings: read-out: % control
Chain of WNK3 (Q9BYP7 whole entry): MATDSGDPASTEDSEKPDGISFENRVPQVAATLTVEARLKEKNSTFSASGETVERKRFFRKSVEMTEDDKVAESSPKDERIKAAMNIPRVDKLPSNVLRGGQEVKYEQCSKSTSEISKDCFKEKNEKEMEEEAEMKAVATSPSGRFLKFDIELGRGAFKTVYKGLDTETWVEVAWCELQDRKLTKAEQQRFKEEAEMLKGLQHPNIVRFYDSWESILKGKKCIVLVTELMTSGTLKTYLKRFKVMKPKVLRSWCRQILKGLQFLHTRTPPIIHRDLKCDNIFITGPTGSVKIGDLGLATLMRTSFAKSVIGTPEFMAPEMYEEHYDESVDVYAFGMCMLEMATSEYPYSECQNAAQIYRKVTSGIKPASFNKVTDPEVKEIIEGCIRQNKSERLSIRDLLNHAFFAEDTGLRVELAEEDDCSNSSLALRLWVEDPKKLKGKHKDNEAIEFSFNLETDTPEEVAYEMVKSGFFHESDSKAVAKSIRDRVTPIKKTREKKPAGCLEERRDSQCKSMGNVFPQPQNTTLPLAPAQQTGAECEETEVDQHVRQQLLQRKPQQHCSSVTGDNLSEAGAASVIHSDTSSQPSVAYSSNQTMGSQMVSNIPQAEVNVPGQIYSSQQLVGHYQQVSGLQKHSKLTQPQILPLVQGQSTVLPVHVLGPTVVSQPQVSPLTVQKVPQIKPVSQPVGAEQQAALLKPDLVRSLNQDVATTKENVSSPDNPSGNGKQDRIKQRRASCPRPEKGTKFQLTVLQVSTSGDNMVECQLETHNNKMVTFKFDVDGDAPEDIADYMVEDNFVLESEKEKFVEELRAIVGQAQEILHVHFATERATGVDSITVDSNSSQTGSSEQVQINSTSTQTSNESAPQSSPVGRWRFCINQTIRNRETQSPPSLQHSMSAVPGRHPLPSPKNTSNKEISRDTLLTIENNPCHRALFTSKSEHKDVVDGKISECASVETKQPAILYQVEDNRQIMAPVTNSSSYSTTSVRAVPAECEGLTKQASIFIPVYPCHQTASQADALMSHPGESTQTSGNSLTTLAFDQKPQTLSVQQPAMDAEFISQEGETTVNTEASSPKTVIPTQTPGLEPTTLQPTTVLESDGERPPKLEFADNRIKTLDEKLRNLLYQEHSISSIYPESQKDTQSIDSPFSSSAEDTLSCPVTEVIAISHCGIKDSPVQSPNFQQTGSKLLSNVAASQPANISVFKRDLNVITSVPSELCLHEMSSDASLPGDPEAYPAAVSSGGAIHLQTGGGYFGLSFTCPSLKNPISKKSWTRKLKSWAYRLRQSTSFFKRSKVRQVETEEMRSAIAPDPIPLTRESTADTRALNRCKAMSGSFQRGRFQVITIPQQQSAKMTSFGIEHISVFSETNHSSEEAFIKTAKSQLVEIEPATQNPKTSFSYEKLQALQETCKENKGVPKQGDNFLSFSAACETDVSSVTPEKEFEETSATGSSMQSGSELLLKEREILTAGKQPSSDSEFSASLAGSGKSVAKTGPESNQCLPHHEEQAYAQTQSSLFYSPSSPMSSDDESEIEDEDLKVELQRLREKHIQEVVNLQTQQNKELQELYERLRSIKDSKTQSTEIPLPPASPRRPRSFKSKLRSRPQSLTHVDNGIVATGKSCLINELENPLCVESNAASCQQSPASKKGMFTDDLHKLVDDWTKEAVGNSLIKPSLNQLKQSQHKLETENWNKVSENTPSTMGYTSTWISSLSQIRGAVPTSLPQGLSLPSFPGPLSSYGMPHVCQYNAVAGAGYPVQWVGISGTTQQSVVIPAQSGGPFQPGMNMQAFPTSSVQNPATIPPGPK
Outline: as §1

CSF1R = CSF1R (Homo sapiens (Human), UniProt P07333); settings: read-out: % control
Outline: as §1

MAP4K3 = MAP4K3 (Homo sapiens (Human), UniProt Q8IVH8); settings: read-out: % control
Outline: as §1

DRAK1 = DRAK1 (Homo sapiens (Human), UniProt Q9UEE5); settings: read-out: % control
Outline: as §1

S6K1 = S6K1 (Homo sapiens (Human), UniProt P23443); settings: read-out: % control
Chain of S6K1 (P23443 whole entry): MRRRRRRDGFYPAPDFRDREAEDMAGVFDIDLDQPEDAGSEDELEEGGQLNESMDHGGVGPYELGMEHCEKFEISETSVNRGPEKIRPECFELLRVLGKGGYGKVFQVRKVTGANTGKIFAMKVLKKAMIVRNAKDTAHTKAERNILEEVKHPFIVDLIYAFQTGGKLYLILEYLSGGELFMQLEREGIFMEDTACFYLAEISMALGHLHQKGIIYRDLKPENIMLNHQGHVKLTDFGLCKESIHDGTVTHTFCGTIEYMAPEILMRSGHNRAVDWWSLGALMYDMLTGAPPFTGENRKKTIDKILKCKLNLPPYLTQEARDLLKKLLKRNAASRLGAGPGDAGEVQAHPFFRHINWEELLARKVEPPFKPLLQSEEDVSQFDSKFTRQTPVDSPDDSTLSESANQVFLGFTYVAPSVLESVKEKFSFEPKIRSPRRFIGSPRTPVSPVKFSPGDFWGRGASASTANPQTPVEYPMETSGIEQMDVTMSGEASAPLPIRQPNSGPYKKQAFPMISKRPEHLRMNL
Outline: as §1

SIK = SIK (Homo sapiens (Human), UniProt P57059); settings: read-out: % control
Outline: as §1

AMPK-alpha1 = AMPK-alpha1 (Homo sapiens (Human), UniProt Q13131); settings: read-out: % control
Outline: as §1

CDK7 = CDK7 (Homo sapiens (Human), UniProt P50613); settings: read-out: % control
Outline: as §1

DMPK2 = DMPK2 (Homo sapiens (Human), UniProt Q6DT37); settings: read-out: % control
Outline: as §1

[1] = molecular target: RSK3(Kin.Dom.1-N-terminal) (Homo sapiens (Human), UniProt Q15349); settings: read-out: % control
Chain of RSK3(Kin.Dom.1-N-terminal) (Q15349 59-318): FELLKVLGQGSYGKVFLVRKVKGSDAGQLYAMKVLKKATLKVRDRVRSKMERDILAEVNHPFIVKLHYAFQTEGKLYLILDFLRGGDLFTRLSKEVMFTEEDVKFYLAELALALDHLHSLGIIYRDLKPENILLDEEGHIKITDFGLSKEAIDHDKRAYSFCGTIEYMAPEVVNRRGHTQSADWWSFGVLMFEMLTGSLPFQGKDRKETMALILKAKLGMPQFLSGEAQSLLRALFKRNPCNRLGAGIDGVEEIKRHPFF
Outline: as §1

YANK3 = YANK3 (Homo sapiens (Human), UniProt Q86UX6); settings: read-out: % control
Outline: as §1

ANKK1 = ANKK1 (Homo sapiens (Human), UniProt Q8NFD2); settings: read-out: % control
Outline: as §1

CDKL5 = CDKL5 (Homo sapiens (Human), UniProt O76039); settings: read-out: % control
Outline: as §1

MYLK = MYLK (Homo sapiens (Human), UniProt Q15746); settings: read-out: % control
Chain of MYLK (Q15746 whole entry): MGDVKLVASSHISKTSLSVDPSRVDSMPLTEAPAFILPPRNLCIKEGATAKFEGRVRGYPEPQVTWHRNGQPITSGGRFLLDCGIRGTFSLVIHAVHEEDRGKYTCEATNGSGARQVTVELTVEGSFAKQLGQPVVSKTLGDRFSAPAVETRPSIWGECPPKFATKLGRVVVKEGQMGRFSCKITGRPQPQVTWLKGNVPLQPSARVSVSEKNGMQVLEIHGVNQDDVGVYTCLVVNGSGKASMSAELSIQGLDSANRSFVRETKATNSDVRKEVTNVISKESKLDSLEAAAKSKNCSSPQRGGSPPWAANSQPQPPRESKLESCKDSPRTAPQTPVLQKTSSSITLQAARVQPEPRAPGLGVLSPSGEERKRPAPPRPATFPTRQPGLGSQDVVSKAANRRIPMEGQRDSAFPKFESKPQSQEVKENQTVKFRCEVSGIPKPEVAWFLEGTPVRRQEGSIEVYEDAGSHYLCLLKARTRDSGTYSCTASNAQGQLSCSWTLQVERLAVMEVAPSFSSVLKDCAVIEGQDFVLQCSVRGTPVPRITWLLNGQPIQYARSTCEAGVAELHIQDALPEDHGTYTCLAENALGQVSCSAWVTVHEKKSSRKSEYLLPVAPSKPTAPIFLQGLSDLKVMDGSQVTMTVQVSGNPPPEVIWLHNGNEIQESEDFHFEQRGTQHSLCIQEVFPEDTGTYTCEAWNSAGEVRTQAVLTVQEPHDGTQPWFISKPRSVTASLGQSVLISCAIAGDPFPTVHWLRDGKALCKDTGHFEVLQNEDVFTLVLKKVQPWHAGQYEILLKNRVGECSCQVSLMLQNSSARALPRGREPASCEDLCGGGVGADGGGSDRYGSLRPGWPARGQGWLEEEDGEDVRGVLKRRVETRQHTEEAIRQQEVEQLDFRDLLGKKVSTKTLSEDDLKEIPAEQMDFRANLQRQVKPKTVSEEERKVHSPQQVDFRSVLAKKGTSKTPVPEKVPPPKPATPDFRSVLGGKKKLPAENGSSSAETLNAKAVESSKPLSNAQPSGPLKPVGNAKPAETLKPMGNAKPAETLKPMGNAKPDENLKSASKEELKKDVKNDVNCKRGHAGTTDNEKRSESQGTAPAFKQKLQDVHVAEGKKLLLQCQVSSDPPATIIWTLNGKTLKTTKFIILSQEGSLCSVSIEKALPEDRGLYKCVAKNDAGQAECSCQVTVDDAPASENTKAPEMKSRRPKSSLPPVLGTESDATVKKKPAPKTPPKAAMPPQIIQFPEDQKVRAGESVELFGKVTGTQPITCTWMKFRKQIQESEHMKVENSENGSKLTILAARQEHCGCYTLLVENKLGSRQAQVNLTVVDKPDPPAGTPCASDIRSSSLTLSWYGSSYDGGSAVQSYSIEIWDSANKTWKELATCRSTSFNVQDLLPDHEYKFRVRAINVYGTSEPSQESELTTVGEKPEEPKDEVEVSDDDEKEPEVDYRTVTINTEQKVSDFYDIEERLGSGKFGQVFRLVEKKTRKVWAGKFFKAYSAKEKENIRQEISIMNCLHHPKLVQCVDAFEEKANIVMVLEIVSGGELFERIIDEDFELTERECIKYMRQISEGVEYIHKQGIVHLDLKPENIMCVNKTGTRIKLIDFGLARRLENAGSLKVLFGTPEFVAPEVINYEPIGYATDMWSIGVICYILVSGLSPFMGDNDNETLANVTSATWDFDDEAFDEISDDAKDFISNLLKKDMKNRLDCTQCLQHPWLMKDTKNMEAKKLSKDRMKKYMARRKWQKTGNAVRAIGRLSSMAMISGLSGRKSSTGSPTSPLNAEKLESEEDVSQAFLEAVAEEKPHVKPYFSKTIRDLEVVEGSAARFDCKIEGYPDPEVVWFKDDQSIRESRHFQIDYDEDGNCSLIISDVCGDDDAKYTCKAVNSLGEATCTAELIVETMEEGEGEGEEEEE
Outline: as §1

TAK1 = TAK1 (Homo sapiens (Human), UniProt O43318); settings: read-out: % control
Outline: as §1

PRKG1 = PRKG1 (Homo sapiens (Human), UniProt Q13976); settings: read-out: % control
Outline: as §1

LRRK2 = LRRK2 (Homo sapiens (Human), UniProt Q5S007); settings: read-out: % control
Outline: as §1

PIM3 = PIM3 (Homo sapiens (Human), UniProt Q86V86); settings: read-out: % control
Outline: as §1

[2] = molecular target: RSK1(Kin.Dom.2-C-terminal) (Homo sapiens (Human), UniProt Q15418); settings: read-out: % control
Outline: as §1

MYLK2 = MYLK2 (Homo sapiens (Human), UniProt Q9H1R3); settings: read-out: % control
Outline: as §1

MYLK4 = MYLK4 (Homo sapiens (Human), UniProt Q86YV6); settings: read-out: % control
Outline: as §1

MLK1 = MLK1 (Homo sapiens (Human), UniProt P80192); settings: read-out: % control
Outline: as §1

CDC2L2 = CDC2L2 (Homo sapiens (Human), UniProt Q9UQ88); settings: read-out: % control
Outline: as §1

HIPK2 = HIPK2 (Homo sapiens (Human), UniProt Q9H2X6); settings: read-out: % control
Outline: as §1

RIOK1 = RIOK1 (Homo sapiens (Human), UniProt Q9BRS2); settings: read-out: % control
Chain of RIOK1 (Q9BRS2 whole entry): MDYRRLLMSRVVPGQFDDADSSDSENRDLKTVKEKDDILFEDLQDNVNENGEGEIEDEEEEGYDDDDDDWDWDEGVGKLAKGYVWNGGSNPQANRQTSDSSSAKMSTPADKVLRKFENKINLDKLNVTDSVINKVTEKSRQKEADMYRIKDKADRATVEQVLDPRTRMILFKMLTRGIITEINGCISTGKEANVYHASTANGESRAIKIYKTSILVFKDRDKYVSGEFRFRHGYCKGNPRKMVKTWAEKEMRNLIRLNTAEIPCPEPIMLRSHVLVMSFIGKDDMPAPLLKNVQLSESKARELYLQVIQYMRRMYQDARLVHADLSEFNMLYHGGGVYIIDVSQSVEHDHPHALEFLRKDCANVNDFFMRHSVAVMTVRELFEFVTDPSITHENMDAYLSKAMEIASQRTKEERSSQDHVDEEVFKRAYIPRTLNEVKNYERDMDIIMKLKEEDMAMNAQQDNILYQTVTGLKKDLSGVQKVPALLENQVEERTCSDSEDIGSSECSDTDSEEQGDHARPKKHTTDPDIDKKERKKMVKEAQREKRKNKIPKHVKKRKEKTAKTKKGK
Outline: as §1

ABL1-phosphorylated = ABL1-phosphorylated (Homo sapiens (Human), UniProt P00519); settings: read-out: % control
Outline: as §1

ERK4 = ERK4 (Homo sapiens (Human), UniProt P31152); settings: read-out: % control
Outline: as §1

[3] = molecular target: RPS6KA4(Kin.Dom.1-N-terminal) (Homo sapiens (Human), UniProt O75676); settings: read-out: % control
Outline: as §1

CSNK1D = CSNK1D (Homo sapiens (Human), UniProt P48730); settings: read-out: % control
Outline: as §1

PIK3CA(E545A) = PIK3CA(E545A) (Homo sapiens (Human), UniProt P42336, E545A); settings: read-out: % control
Outline: as §1

**Q.** Which results are given for `CCNc1cc(Nc2ccc(C(=O)N3CCC(N4CCOCC4)CC3)cc2OC)nc2[nH]cc(C#N)c12` [Example 18, 4-(ethylamino)-6-((2-methoxy-4-(4-morpholinopiperidine-1-carbonyl)phenyl)amino)-1H-pyrrolo[2,3-b]pyridine-3-carbonitrile]?
**A.** remaining binding at 1 µM (PLK2): 81%; remaining binding at 1 µM (PIK3CA(E542K)): 96%; remaining binding at 1 µM (NIK): 25%; remaining binding at 1 µM (MST1): 99%; remaining binding at 1 µM (TNNI3K): 91%; remaining binding at 1 µM (PDPK1): 99%; remaining binding at 1 µM (ACVR1B): 88%; % control (FLT3(ITD)): 92%; remaining binding at 1 µM (ROCK2): 7.8%; remaining binding at 1 µM (WNK3): 82%; remaining binding at 1 µM (CSF1R): 73%; remaining binding at 1 µM (MAP4K3): 93%; remaining binding at 1 µM (DRAK1): 56%; remaining binding at 1 µM (S6K1): 70%; remaining binding at 1 µM (SIK): 100%; remaining binding at 1 µM (AMPK-alpha1): 92%; remaining binding at 1 µM (CDK7): 55%; remaining binding at 1 µM (DMPK2): 85%; remaining binding at 1 µM [1]: 92%; remaining binding at 1 µM (YANK3): 96%; remaining binding at 1 µM (ANKK1): 78%; remaining binding at 1 µM (CDKL5): 100%; remaining binding at 1 µM (MYLK): 6%; remaining binding at 1 µM (TAK1): 59%; remaining binding at 1 µM (PRKG1): 64%; remaining binding at 1 µM (LRRK2): 1.1%; remaining binding at 1 µM (PIM3): 78%; remaining binding at 1 µM [2]: 64%; remaining binding at 1 µM (MYLK2): 72%; remaining binding at 1 µM (MYLK4): 88%; remaining binding at 1 µM (MLK1): 100%; remaining binding at 1 µM (CDC2L2): 86%; remaining binding at 1 µM (HIPK2): 68%; remaining binding at 1 µM (RIOK1): 94%; remaining binding at 1 µM (ABL1-phosphorylated): 87%; remaining binding at 1 µM (ERK4): 98%; remaining binding at 1 µM [3]: 100%; percent of control binding at 1 µM (CSNK1D; CSNK1D, 1 uM): 5.3%; remaining binding at 1 µM (PIK3CA(E545A)): 100%

**Q.** With `CCNc1cc(Nc2ccc(C(=O)N3CCC(N4CCOCC4)CC3)cc2OC)nc2[nH]cc(C(F)(F)F)c12` [Example 57, (4-((4-(ethylamino)-3-(trifluoromethyl)-1H-pyrrolo[2,3-b]pyridin-6-yl)amino)-3-methoxyphenyl) (4-morpholinopiperidin-1-yl)methanone] as the molecule, how does the remaining binding at 1 µM (PLK2) read?
**A.** 90%

**Q.** And the remaining binding at 1 µM (PIK3CA(E542K))?
**A.** 100%

**Q.** And the remaining binding at 1 µM (NIK)?
**A.** 82%

**Q.** And the remaining binding at 1 µM (MST1)?
**A.** 76%

**Q.** What about the remaining binding at 1 µM (TNNI3K) of the same molecule?
**A.** 100%

**Q.** What about the remaining binding at 1 µM (PDPK1) of the same molecule?
**A.** 86%

**Q.** And the remaining binding at 1 µM (ACVR1B)?
**A.** 82%

**Q.** And the “% control” value (FLT3(ITD))?
**A.** 79%

**Q.** And the remaining binding at 1 µM (ROCK2)?
**A.** 100%

**Q.** And the remaining binding at 1 µM (WNK3)?
**A.** 100%

**Q.** And the remaining binding at 1 µM (CSF1R)?
**A.** 72%

**Q.** What about the remaining binding at 1 µM (MAP4K3) of the same molecule?
**A.** 91%

**Q.** And the remaining binding at 1 µM (DRAK1)?
**A.** 67%

**Q.** What about the remaining binding at 1 µM (S6K1) of the same molecule?
**A.** 100%

**Q.** What about the remaining binding at 1 µM (SIK) of the same molecule?
**A.** 90%

**Q.** And the remaining binding at 1 µM (AMPK-alpha1)?
**A.** 75%

**Q.** And the remaining binding at 1 µM (CDK7)?
**A.** 53%

**Q.** And the remaining binding at 1 µM (DMPK2)?
**A.** 96%

**Q.** And the remaining binding at 1 µM [1]?
**A.** 75%

**Q.** And the remaining binding at 1 µM (YANK3)?
**A.** 71%

**Q.** What about the remaining binding at 1 µM (ANKK1) of the same molecule?
**A.** 100%

**Q.** What about the remaining binding at 1 µM (CDKL5) of the same molecule?
**A.** 91%

**Q.** And the remaining binding at 1 µM (MYLK)?
**A.** 7.8%

**Q.** And the remaining binding at 1 µM (TAK1)?
**A.** 79%

**Q.** And the remaining binding at 1 µM (PRKG1)?
**A.** 98%

**Q.** What about the remaining binding at 1 µM (LRRK2) of the same molecule?
**A.** 48%

**Q.** And the remaining binding at 1 µM (PIM3)?
**A.** 78%

**Q.** What about the remaining binding at 1 µM [2] of the same molecule?
**A.** 77%

**Q.** What about the remaining binding at 1 µM (MYLK2) of the same molecule?
**A.** 85%

**Q.** What about the remaining binding at 1 µM (MYLK4) of the same molecule?
**A.** 83%

**Q.** What about the remaining binding at 1 µM (MLK1) of the same molecule?
**A.** 100%

**Q.** And the remaining binding at 1 µM (CDC2L2)?
**A.** 88%

**Q.** And the remaining binding at 1 µM (HIPK2)?
**A.** 100%

**Q.** What about the remaining binding at 1 µM (RIOK1) of the same molecule?
**A.** 94%

**Q.** What about the remaining binding at 1 µM (ABL1-phosphorylated) of the same molecule?
**A.** 61%

**Q.** What about the remaining binding at 1 µM (ERK4) of the same molecule?
**A.** 93%

**Q.** And the remaining binding at 1 µM [3]?
**A.** 100%

**Q.** What about the percent of control binding at 1 µM (CSNK1D) of the same molecule?
**A.** 30%

**Q.** And the remaining binding at 1 µM (PIK3CA(E545A))?
**A.** 77%
